# According to paper PMC9696794, “Synthesis and Antimicrobial Activity of Short Analogues of the Marine Antimicrobial Peptide Turgencin A: Effects of SAR Optimizations, Cys-Cys Cyclization and Lipopeptide Modifications” (International Journal of Molecular Sciences, 2022):
# Where a SMILES comes first, the peptide text is derived from it. Bridges are numbered along the chain shown (N, C = ends). The star is where a group is joined. Lauroyl = CCCCCCCCCCCC(=O)*; Octanoyl = CCCCCCCC(=O)*
# Assays:
# E. coli K12 = experiment: Bacterial biosensor viability assay (lux operon luminescence); type: cell-based, Escherichia coli; conditions: E. coli K12, within 3 min
# Source text: Changes in light emission of sensor bacteria constitutively expressing the bacterial lux operon or a eukaryotic luciferase can be used as a proxy for viability and membrane integrity, respectively. Light production of the viability biosensors represents metabolic activity of the bacteria. For the membrane integrity assay on the other hand, light production depends on the influx of the externally added D-luciferin, which at neural pH will not readily pass the intact plasma membrane. An initial increase in light production therefore corresponds with damage to the plasma membrane and a concomitant influx of D-luciferin, while a subsequent drop in light emission indicates diminishing ATP reserves of the dying sensor bacteria.
# Bacterial viability, based on light production by constitutively expressed bacterial luciferase, was measured in real time according to the method described by Hansen et al.. The assay was performed using B. subtilis 168 with chromosomally integrated luxABCDE operon and E. coli K12 carrying the plasmid pCGLS-11 containing the luxCDABE operon. […] No D-luciferin was added to the cell suspension. Each assay was performed at least three times independently, and the figures show a representative dataset.
# [1] = tested on: fungi (A. pullulans, C. albicans, Rhodotorula sp.); experiment: Antifungal MIC assay, all fungi together (range or geometric mean); type: cell-based; conditions: Table S3; MIC >128 set to 128
# How it was run: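 Overnight cultures in potato dextrose broth with 2% glucose at 25–30 °C were diluted to approx. 4 × 10^5 spores/mL and mixed 1:1 with two-fold peptide dilutions plated at 256 to 1 µg/mL. After 48 h at room temperature, OD600 was read. MIC was the lowest concentration giving OD below 10% of the growth control, in triplicate.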
compound,measurement,setting,value
"CCCCCCCCCCCC(=O)N[C@H]1CSSC[C@@H](C(=O)N[C@@H](CCCCN)C(=O)N[C@@H](CC(C)C)C(N)=O)NC(=O)[C@H](CCCCN)NC(=O)[C@H](Cc2c[nH]c3ccccc23)NC(=O)CNC(=O)CNC(=O)[C@@H]2CCCN2C(=O)[C@H](CCCCN)NC(=O)[C@H](CCCCN)NC(=O)CNC1=O [Peptide C12-cTurg-1, C12 -(CGKKPGGWKC)KL-NH2] (Lauroyl-CGKKPGGWKCKL-NH2; disulfide 1-10)",effect on viability (light emission),E. coli K12,"gradual, dose-dependent reduction in viability"
same,GM of MIC Fungi,[1],20 mg/L
"CCCCCCCC(=O)N[C@H]1CSSC[C@@H](C(=O)N[C@@H](CCCCN)C(=O)N[C@@H](CC(C)C)C(N)=O)NC(=O)[C@H](CCCCN)NC(=O)[C@H](Cc2c[nH]c3ccccc23)NC(=O)CNC(=O)[C@H](Cc2c[nH]c3ccccc23)NC(=O)[C@H](Cc2c[nH]c3ccccc23)NC(=O)[C@H](CCCCN)NC(=O)[C@H](CCCCN)NC(=O)CNC1=O [Peptide C8-cTurg-2, C8- (CGKKWWGWKC)KL-NH2] (Octanoyl-CGKKWWGWKCKL-NH2; disulfide 1-10)",effect on viability (light emission),E. coli K12,"gradual, dose-dependent reduction in viability"
same,GM of MIC Fungi,[1],13 mg/L
